Experiment: Inhibition of human DYRK1A transfected in HEK293T cells co-transfected with Renilla plasmid, pGL3-NFAT and NFATc1 assessed as derepression of NFAT-dependent luciferase activity measured after 48 hrs by luciferase assay

SMILES: CCOC(=O)c1cnc2ccc(-c3ccnc(C)c3)nc2c1N[C@H]1CC[C@H](CN(C)C)CC1
- EC50: 1530 nM

Reference: BindingDB's records for doi:10.1016/j.bmc.2019.115193 (Stanford University, 2020)
